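The compound was tested at five concentrations on cells cultured in 96-well plates, with a 48-hour exposure period. GI50 marks 50% less growth.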 Calls of active or inactive are those of the source. Cut-off read from the data, not from the text of the source: active = GI50 up to about 1.1 µM and inactive = higher.
Experiments:
Experiment in all cases: growth of human tumour cells (NCI), 48 h
786-0 = test system: 786-0
A498 = test system: A498
A549 = test system: A549
ACHN = test system: ACHN
BT-549 = test system: BT-549
CAKI-1 = test system: CAKI-1
CCRF-CEM = test system: CCRF-CEM
COLO 205 = test system: COLO 205
DU-145 = test system: DU-145
EKVX = test system: EKVX
HCC 2998 = test system: HCC 2998
HCT-116 = test system: HCT-116
HCT-15 = test system: HCT-15
HOP-62 = test system: HOP-62
HOP-92 = test system: HOP-92
HT-29 = test system: HT-29
IGROV-1 = test system: IGROV-1
K562 = test system: K562
KM12 = test system: KM12
LOX IMVI = test system: LOX IMVI
M14 = test system: M14
MCF7 = test system: MCF7
MDA-MB-231 = test system: MDA-MB-231
MDA-MB-435 = test system: MDA-MB-435
MDA-N = test system: MDA-N
MOLT-4 = test system: MOLT-4
Malme-3M = test system: Malme-3M
NCI-H226 = test system: NCI-H226
NCI-H23 = test system: NCI-H23
NCI-H522 = test system: NCI-H522
NCI/ADR-RES = test system: NCI/ADR-RES
OVCAR-3 = test system: OVCAR-3
OVCAR-4 = test system: OVCAR-4
OVCAR-5 = test system: OVCAR-5
OVCAR-8 = test system: OVCAR-8
PC-3 = test system: PC-3
RPMI-8226 = test system: RPMI-8226
RXF 393 = test system: RXF 393
SF-268 = test system: SF-268
SF-295 = test system: SF-295
SF-539 = test system: SF-539
SK-MEL-28 = test system: SK-MEL-28
SK-MEL-2 = test system: SK-MEL-2
SK-MEL-5 = test system: SK-MEL-5
SK-OV-3 = test system: SK-OV-3
SN12C = test system: SN12C
SNB-19 = test system: SNB-19
SR = test system: SR
SW-620 = test system: SW-620
T47D = test system: T47D
TK-10 = test system: TK-10
U-251 = test system: U-251
UACC-257 = test system: UACC-257
UACC-62 = test system: UACC-62
UO-31 = test system: UO-31
NCI-H460 = test system: NCI-H460
SNB-75 = test system: SNB-75

SMILES: O=c1c2ccc(Cl)cc2oc2c(CNc3ccc(S(=O)(=O)Nc4nccs4)cc3)cccc12
- GI50 (786-0): > 100 µM (inactive)
- GI50 (A498): > 100 µM (inactive)
- GI50 (A549): > 100 µM (inactive)
- GI50 (ACHN): > 100 µM (inactive)
- GI50 (BT-549): > 100 µM (inactive)
- GI50 (CAKI-1): 0.951 µM (active)
- GI50 (CCRF-CEM): 91.6 µM (inactive)
- GI50 (COLO 205): > 100 µM (inactive)
- GI50 (DU-145): > 100 µM (inactive)
- GI50 (EKVX): > 100 µM (inactive)
- GI50 (HCC 2998): > 100 µM (inactive)
- GI50 (HCT-116): > 100 µM (inactive)
- GI50 (HCT-15): > 100 µM
- GI50 (HOP-62): > 100 µM (inactive)
- GI50 (HOP-92): 31.2 µM (inactive)
- GI50 (HT-29): > 100 µM (inactive)
- GI50 (IGROV-1): > 100 µM (inactive)
- GI50 (K562): > 100 µM (inactive)
- GI50 (KM12): > 100 µM (inactive)
- GI50 (LOX IMVI): > 100 µM (inactive)
- GI50 (M14): > 100 µM (inactive)
- GI50 (MCF7): > 100 µM (inactive)
- GI50 (MDA-MB-231): 98.6 µM (inactive)
- GI50 (MDA-MB-435): > 100 µM (inactive)
- GI50 (MDA-N): > 100 µM (inactive)
- GI50 (MOLT-4): > 100 µM (inactive)
- GI50 (Malme-3M): > 100 µM (inactive)
- GI50 (NCI-H226): > 100 µM (inactive)
- GI50 (NCI-H23): > 100 µM (inactive)
- GI50 (NCI-H522): > 100 µM (inactive)
- GI50 (NCI/ADR-RES): > 100 µM (inactive)
- GI50 (OVCAR-3): > 100 µM (inactive)
- GI50 (OVCAR-4): > 100 µM (inactive)
- GI50 (OVCAR-5): > 100 µM (inactive)
- GI50 (OVCAR-8): > 100 µM (inactive)
- GI50 (PC-3): > 100 µM (inactive)
- GI50 (RPMI-8226): > 100 µM (inactive)
- GI50 (RXF 393): > 100 µM (inactive)
- GI50 (SF-268): > 100 µM (inactive)
- GI50 (SF-295): > 100 µM (inactive)
- GI50 (SF-539): 99.1 µM (inactive)
- GI50 (SK-MEL-28): > 100 µM (inactive)
- GI50 (SK-MEL-2): > 100 µM (inactive)
- GI50 (SK-MEL-5): > 100 µM (inactive)
- GI50 (SK-OV-3): > 100 µM (inactive)
- GI50 (SN12C): > 100 µM (inactive)
- GI50 (SNB-19): > 100 µM (inactive)
- GI50 (SR): > 100 µM (inactive)
- GI50 (SW-620): > 100 µM (inactive)
- GI50 (T47D): > 100 µM (inactive)
- GI50 (TK-10): > 100 µM (inactive)
- GI50 (U-251): > 100 µM (inactive)
- GI50 (UACC-257): > 100 µM (inactive)
- GI50 (UACC-62): > 100 µM (inactive)
- GI50 (UO-31): > 100 µM (inactive)

SMILES: COc1cc2c[n+](C)c3c4cc(OC)c(OC)cc4c(OCc4ccccc4)cc3c2cc1OC
- GI50 (786-0): 0.634 µM (active)
- GI50 (A498): 27.3 µM (inactive)
- GI50 (A549): 4.72 µM (inactive)
- GI50 (ACHN): > 69.3 µM (inactive)
- GI50 (BT-549): 0.32 µM (active)
- GI50 (CAKI-1): > 39.2 µM (inactive)
- GI50 (COLO 205): 0.263 µM (active)
- GI50 (DU-145): 1.08 µM (active)
- GI50 (EKVX): > 100 µM (inactive)
- GI50 (HCC 2998): 2.1 µM (inactive)
- GI50 (HCT-116): 1.02 µM (active)
- GI50 (HCT-15): > 100 µM
- GI50 (HOP-62): 1.86 µM (inactive)
- GI50 (HOP-92): 0.966 µM (active)
- GI50 (HT-29): 2.28 µM (inactive)
- GI50 (K562): 1.83 µM (inactive)
- GI50 (KM12): 2.1 µM (inactive)
- GI50 (LOX IMVI): 1.31 µM (inactive)
- GI50 (M14): 1.77 µM (inactive)
- GI50 (MCF7): 0.578 µM (active)
- GI50 (MDA-MB-231): 2.32 µM (inactive)
- GI50 (MDA-MB-435): 1.09 µM (active)
- GI50 (MDA-N): 0.982 µM (active)
- GI50 (MOLT-4): 0.592 µM (active)
- GI50 (Malme-3M): 1.29 µM (inactive)
- GI50 (NCI-H226): 0.231 µM (active)
- GI50 (NCI-H23): 1.32 µM (inactive)
- GI50 (NCI-H460): 6.62 µM (inactive)
- GI50 (NCI-H522): 0.155 µM (active)
- GI50 (NCI/ADR-RES): > 100 µM (inactive)
- GI50 (OVCAR-3): 0.877 µM (active)
- GI50 (OVCAR-4): 2.02 µM (inactive)
- GI50 (OVCAR-5): > 100 µM (inactive)
- GI50 (OVCAR-8): 1.91 µM (inactive)
- GI50 (PC-3): 0.877 µM (active)
- GI50 (RPMI-8226): 5.28 µM (inactive)
- GI50 (RXF 393): 1.6 µM (inactive)
- GI50 (SF-268): 0.0432 µM (active)
- GI50 (SF-295): 4.89 µM (inactive)
- GI50 (SF-539): 0.114 µM (active)
- GI50 (SK-MEL-28): 1.24 µM (inactive)
- GI50 (SK-MEL-2): 1.63 µM (inactive)
- GI50 (SK-MEL-5): 0.838 µM (active)
- GI50 (SK-OV-3): 11.7 µM (inactive)
- GI50 (SN12C): 0.265 µM (active)
- GI50 (SNB-19): 0.0681 µM (active)
- GI50 (SNB-75): 0.199 µM (active)
- GI50 (SR): 0.14 µM (active)
- GI50 (SW-620): 0.805 µM (active)
- GI50 (T47D): 0.0986 µM (active)
- GI50 (TK-10): > 31.6 µM (inactive)
- GI50 (U-251): 0.0273 µM (active)
- GI50 (UACC-257): 0.706 µM (active)
- GI50 (UACC-62): 0.434 µM (active)
- GI50 (UO-31): > 100 µM (inactive)
